Assay [1] has as its system renal fibrosis, adenine-induced CKD mice. In words: renal fibrosis in adenine CKD mice (trichrome, immunoblot, RT-qPCR). It is filed as in vivo, mouse. On the procedure:
FIGS. 3A-3C. SK-124 treatment reduces fibrosis in adenine-induced chronic kidney disease. (A) Representative trichrome stained sections from the indicated groups. Darker staining indicates fibrosis which is increased in vehicle-treated adenine diet mice and reduced by SK-124 treatment. (B) Kidney protein lysates were isolated and analyzed by immunoblotting for alpha-smooth muscle actin (αSMA) (top) and GAPDH (bottom). (C) Whole kidney RNA from the indicated groups was analyzed by RT-qPCR for the indicated fibrosis marker.
(§1) 7-week-old female CD1 mice were obtained from Charles River Laboratories (Wilmington, MA) and were fed on 0.2% adenine containing diet (TD.130900; 0.2% Adenine, 0.9% Phosphate, 0.5% Calcium; Envigo) or control diet (TD. 96348) for 6 or 8 weeks to induce chronic kidney disease (CKD). Mice were oral gavaged with 40 mg/kg SK-124, or intraperitonially injected with 80 μg/kg PTH, or treated with vehicle 5 days a week for the duration of the special diet.
cDNA was prepared using Primescript RT kit (Takara Inc), with 750 ng RNA per reaction. RT-qPCR was performed by using PerfeCa® SYBR® Green FAstMix® ROX (Quanta bio) in the StepOnePlus™ Real-time PCR System (Applied Biosystems). Hmbs was used as a control housekeeping gene for mouse samples, and B-Actin was used for organoids, relative expression was calculated (2^-deltaCT method) and compared to the mean of control group if necessary. Primers used for RT-qPCR are listed in Table 2 (mouse primers) and Table 3 (human primers).
Snap-frozen kidneys were homogenized in NP-40 lysis buffer (FNN0021, Thermo) with using TissueLyserII at 30 Hz for 5 minutes. Samples were rotated at 4 deg for 20 minutes and frozen on dry ice and thawed. After centrifuging for 30 minutes at 4 deg, the supernatants were collected. After determining the protein concentration by Bradford assay, […] of protein was loaded for western blotting. For KGli cells, the cells were washed with cold PBS then scraped into TNT buffer (Tris-NaCl-Tween buffer, 20 mM Tris-HCl pH 8, 200 mM NaCl, 0.5% Triton X-100 containing 1X-protease inhibitor cocktail (Bimake Inc. 100X, Cat. #B14001), 1 mM DTT, 1 mM NaF, 1 mM Vanadate (New England Biolabs)). Next, samples were vortexed for 1 minute and centrifuged at 14,000g for 6 minutes at 4 deg, and the supernatant was collected.
For immunoblotting, the lysates were separated by SDS-PAGE (Bio-rad precast gels), and proteins were transferred to the nitrocellulose membranes. Then, the membranes were blocked in 5% milk in tris-buffered saline plus 0.05% Tween-20 (TBST) and incubated with primary antibody in 5% BSA-TBST overnight at 4° C. Next day, after washing, membranes were incubated with anti-rabbit HRP-coupled secondary antibody (1:2500, Cell Signaling Technology, 7074S) or anti-mouse HRP-coupled secondary antibody (1:2500, Cell Signaling, 7076S), and signals were detected with SuperSignal West Femto Maximum Sensitivity Substrate (Thermo scientific) using the iBright imager (ThermoFisher). The antibodies used are: SIK2 (1:1000, Cell Signaling, 6919), GAPDH (1:1000, Cell Signaling, 2118), αSMA (1:1000, Invitrogen, 14-9760-82), pSMAD3 (1:1000, Cell Signaling, 9520), and SMAD⅔ (1:1000, Cell Signaling, 8685).
Hematoxylin and eosin (H+E) staining was performed on some sections using standard protocols and Masson's Trichome stain for fibrosis was performed according to the manufacturer's instructions (ab150686, abcam). Formalin-fixed paraffin embedded sections were also used for in situ hybridization according to the manufacturer instructions (ACDbio). Briefly, the sections were blocked with hydrogen peroxide for 10 minutes at room temperature, followed by antigen retrieval with Pepsin (R2283, Sigma-Aldrich) in humidified chamber in 40° C. HybEZ oven. The Sik1 (526411, ACD), Sik2 (526421, ACD), or Sik3 (526431, ACD) probe was added to the sections for 2 hours in the humidified chamber at 40° C. Then, the signal was amplified (322310, ACD) and detected using Brown DAB kit (322310, ACD). […]
For orientation: A western blot detects proteins with antibodies after separation by electrophoresis.

Assay [2] deals with mice with adenine-induced chronic kidney disease. In words: adenine diet-induced CKD in mice, 6 weeks: body weight, renal function, mineral metabolism, histology. It is filed as in vivo, mouse (female CD1). On the procedure: FIGS. 1A-1E. […] (A) Study design: Female CD1 mice (n=8/group) were treated with control or 0.2% adenine diet starting at 6 weeks of age along with vehicle or SK-124 (40 mg/kg) treatment by oral gavage once daily. Bottom: body weight of mice in the indicated treatment groups. […] (B, C) After 6 weeks of treatment, the indicated analytes were measured in fasting serum or urine. […] (D) H+E-stained kidney sections were assessed on a blinded basis by a pathologist for tubulointerstitial damage. (E) Whole kidney RNA from the indicated groups was analyzed by RT-qPCR for the indicated proximal tubule marker gene. For all panels in all figures, 1-way ANOVA was performed with Dunnett's posthoc analysis to analyze differences between treatment groups, p values less than 0.05 are shown in graph.
as §1
For studies with Ubiquitin-Cre^ERt2; Sik2^ff; Sik3^ff mice (JAX #007001 for Ubiquitin-Cre^ERt2: RRID:MGL:5905012 for Sik2 foxed mice; and Sik3^tmla(EUCOMM)Hmgu mice (RRID:MGI:5085429) bred to PGK1 FLPo mice (JAX #011065) in order to generate Sik3 foxed mice), tamoxifen was injected (1 mg, IP, Q48 hours, 3 injections total) in all animals including Cre-negative control littermates housed in cages with Pure-o′Cel bedding at 5 weeks of age. Mice were then fed on 0.2% adenine diet from 6 weeks to 9 weeks of age. Mice were fasted for 6 hours and treated with SK-124 and PTH 4 hours and 2 hours before the sacrifice. Blood and spot urine samples were collected by cheek pouch bleeding and by pipetting urine collected on hydrophobic sand (Labsand; Braintree, MA). Kidneys were immediately snap-frozen in liquid nitrogen for TRIzol (Life Technologies)-Chloroform (Fischer Scientific) based RNA isolation or protein isolation, or fixed in 10% formalin at 4C for 24 hrs for histology. All serum and urine measurements were performed using commercial bioassay detection reagents listed in Table 1, following the manufacturers' instructions. Urine protein levels were measured by Bradford assay and normalized to urine creatinine.

Where [3] appears, read: 0.2% adenine diet, 6 weeks, SK-124 40 mg/kg oral.

Entries after “also recorded” stand apart in the source; their conditions may differ.

As for `CCc1nnc(-c2c(OC)cc(-c3cnc4cc(-c5cnn(C)c5)ccn34)cc2OC)o1` [SK-124, 2-[2,6-Dimethoxy-4-[7-(1-methylpyrazol-4-yl)imidazo[1,2-a]pyridin-3-yl]phenyl]-5-ethyl-1,3,4-oxadiazole], the “fibrosis (trichrome staining)” value in assay [1] (adenine diet, SK-124 40 mg/kg oral, 40 mg/kg) is given as “reduced fibrosis”. Further, in assay [1] (kidney lysates, immunoblot), the αSMA protein result is recorded as “reduced”. Moreover, in assay [1] (whole kidney RNA, RT-qPCR), the “Colla1 mRNA” value is given as “reduced”, the “Vimentin (Vim) mRNA” value is listed as “reduced” and the “αSMA mRNA” value is given as “reduced”. In assay [2] (setting [3]), the BUN entry was “reduced”, the creatinine entry is recorded as “reduced”, the “cystatin C” value is “reduced” and the hyperphosphatemia result was “improved”. In assay [2] (setting [3]), the “increased FGF-23” value is recorded as “improved”, the proteinuria result is recorded as “reduced” and the secondary hyperparathyroidism result was “improved”. In assay [2] (0.2% adenine diet, 6 weeks, SK-124 40 mg/kg oral gavage once daily, 40 mg/kg), the body weight result is recorded as “CKD-induced weight loss is prevented; also recorded: improved body weight”. Also, in assay [2] (0.2% adenine diet, 6 weeks, SK-124 40 mg/kg oral, 40 mg/kg), the “renal (kidney) function and overall health” value was “improves renal function; also recorded: dramatic improvements in renal function and overall health; also recorded: restores kidney function”. Further, in assay [2] (H+E-stained kidney sections, blinded pathologist), the tubule-interstitial damage entry is given as “reduced tubule-interstitial damage”. Moreover, the “CKD-induced changes of analytes in fasting serum or urine” value in assay [2] (after 6 weeks of treatment, SK-124 40 mg/kg oral) is recorded as “All CKD-induced changes were prevented”.
